Where two headings read alike, the source gives them in different places.
Target: Ba/F3 V617F cells (Homo sapiens, UniProt O60674, V617F, cells depend on it)
Experiment: Proliferation assay (Cell Titer-Glo, 72 h) utilizing Ba/F3 V617F cells
Type: cell-based, mouse
Outline: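 Ba/F3 V617F cells in RPMI/10% FBS, 1×10^5 cells/mL, exposed in duplicate to 3-fold serial compound dilutions (top 5 mM DMSO stock, diluted 1:250, added as 2× solution in 5% FBS medium) for 72 h at 37 °C. Viability by Cell Titer-Glo luminescence; IC50 reported.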

[1] = Ba/F3 V617F cells, proliferation, level of activity given as class symbol, read-out: IC50 (the source's name)
[2] = Ba/F3 V617F cells, proliferation, level of activity to inhibit JAK2, read-out: IC50 (the source's name)

Chain of Ba/F3 V617F cells (O60674 whole entry V617F): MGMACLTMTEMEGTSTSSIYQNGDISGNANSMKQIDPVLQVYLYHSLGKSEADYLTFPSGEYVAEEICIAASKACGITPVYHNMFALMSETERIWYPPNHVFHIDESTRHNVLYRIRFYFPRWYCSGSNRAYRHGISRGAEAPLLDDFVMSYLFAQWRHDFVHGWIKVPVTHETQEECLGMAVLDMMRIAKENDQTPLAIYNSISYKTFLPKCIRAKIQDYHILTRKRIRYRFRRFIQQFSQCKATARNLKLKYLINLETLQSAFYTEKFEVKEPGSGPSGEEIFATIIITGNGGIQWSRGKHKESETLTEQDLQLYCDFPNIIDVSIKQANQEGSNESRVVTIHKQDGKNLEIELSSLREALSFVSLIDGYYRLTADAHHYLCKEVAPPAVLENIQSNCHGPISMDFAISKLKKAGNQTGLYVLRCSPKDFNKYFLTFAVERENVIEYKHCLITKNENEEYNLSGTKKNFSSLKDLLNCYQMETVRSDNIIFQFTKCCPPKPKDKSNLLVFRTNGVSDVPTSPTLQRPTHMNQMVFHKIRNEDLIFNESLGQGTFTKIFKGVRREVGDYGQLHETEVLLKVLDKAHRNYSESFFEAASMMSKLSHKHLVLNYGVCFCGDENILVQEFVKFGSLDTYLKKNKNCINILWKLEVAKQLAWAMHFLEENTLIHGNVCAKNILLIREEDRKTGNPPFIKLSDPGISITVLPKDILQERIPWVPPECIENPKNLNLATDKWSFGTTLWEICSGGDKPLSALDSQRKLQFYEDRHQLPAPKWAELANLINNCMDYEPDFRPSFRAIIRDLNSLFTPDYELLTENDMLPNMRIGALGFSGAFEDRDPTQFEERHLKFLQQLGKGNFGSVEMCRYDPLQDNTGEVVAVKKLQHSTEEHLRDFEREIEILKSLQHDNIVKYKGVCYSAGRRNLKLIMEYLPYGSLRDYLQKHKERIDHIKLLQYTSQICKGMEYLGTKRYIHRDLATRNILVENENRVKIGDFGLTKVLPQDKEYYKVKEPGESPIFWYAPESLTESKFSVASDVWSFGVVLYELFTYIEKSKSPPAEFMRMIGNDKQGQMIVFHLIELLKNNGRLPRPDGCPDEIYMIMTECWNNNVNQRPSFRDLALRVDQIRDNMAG

GI50 [1] | GI50 [2] | Structure (SMILES) | also measured
< 1000 nM |  | CC1(C)Oc2cc(-c3ccnc(Nc4ccc(C5CC6CC5N(S(C)(=O)=O)C6)cc4)n3)cnc2NC1=O (centres unmarked) [compound 228, 4-(2,2-dimethyl-3-oxo-3,4-dihydro-2H-pyrido[3,2-b][1,4]oxazin-7-yl)-N-(4-(2-methylsulfonyl-2-azabicyclo[2.2.1]heptan-6-yl)phenyl)pyrimidin-2-amine] | 
 | < 1000 nM | Cc1cc(Nc2nccc(-c3cnc4c(c3)OCCN4C)n2)ccc1N1C[C@@H]2C[C@H]1CN2C [compound 8, 4-(4-methyl-3,4-dihydro-2H-pyrido[3,2-b][1,4]oxazin-7-yl)-N-(3-methyl-4-((1S,4S)-5-methyl-2,5-diazabicyclo[2.2.1]heptan-2-yl)phenyl)pyrimidin-2-amine] | 
 | 1000 to 10000 nM | Cc1cc(Nc2nccc(-c3ccc(C(=O)NC4=NCCS4)cc3)n2)ccc1N1C[C@@H]2C[C@H]1CN2C [compound 45, 4-(4-(4,5-dihydrothiazol-2-ylcarbamoyl)phenyl)-N-(3-methyl-4-((1S,4S)-5-methyl-2,5-diazabicyclo[2.2.1]heptan-2-yl)phenyl)pyrimidin-2-amine] | 
 | 1000 to 10000 nM | CN(C)c1ccc(-c2ccnc(Nc3ccc(N4C[C@@H]5C[C@H]4CN5C)c(F)c3)n2)cc1 [compound 15, 4-(4-(N,N-dimethylamino)phenyl)-N-(3-fluoro-4-((1S,4S)-5-methyl-2,5-diazabicyclo[2.2.1]heptan-2-yl)phenyl)pyrimidin-2-amine] | 
 | 1000 to 10000 nM | CN1C[C@@H]2C[C@H]1CN2c1ccc(Nc2nccc(-c3ccc(C(=O)Nc4ccccn4)cc3)n2)cc1F [compound 133, 4-(4-((pyridin-2-yl)aminocarbonyl)phenyl)-N-(3-fluoro-4-((1S,4S)-5-methyl-2,5-diazabicyclo[2.2.1]heptan-2-yl)phenyl)pyrimidin-2-amine] | 
< 1000 nM |  | Cc1cc(Nc2nccc(-c3ccc(C(F)(F)F)cc3)n2)ccc1N1C[C@@H]2C[C@H]1CN2C [compound 269, 4-(4-(trifluoromethyl)phenyl)-N-(3-methyl-4-((1S,4S)-5-methyl-2,5-diazabicyclo[2.2.1]heptan-2-yl)phenyl)pyrimidin-2-amine] | 
 |  | Cc1cc(-c2ccnc(Nc3cnc(N4C[C@@H]5C[C@H]4CN5C)c(C)c3)n2)cnc1N1CCOCC1 [compound 64, 4-(5-methyl-6-(morpholin-4-yl)pyridin-3-yl)-N-(5-methyl-6-((1S,4S)-5-methyl-2,5-diazabicyclo[2.2.1]heptan-2-yl)pyridin-3-yl)pyrimidin-2-amine] | GI50 (inhibition of JAK2 activity, proliferation of Ba/F3 V617F cells, read-out: IC50 (the source's name)): < 1000 nM
 | < 1000 nM | CN1C2CCC1CN(c1ccc(Nc3nccc(-c4cnc5c(c4)OC(C)(C)C(=O)N5)n3)cc1)C2 [compound 157, 4-(2,2-dimethyl-3-oxo-3,4-dihydro-2H-pyrido[3,2-b][1,4]oxazin-7-yl)-N-(4-(8-methyl-3,8-diazabicyclo[3.2.1]octan-3-yl)phenyl)pyrimidin-2-amine] | 
< 1000 nM |  | Cc1cc(Nc2nccc(-c3ccc(NCCC(C)(C)C)nc3)n2)ccc1N1C[C@@H]2C[C@H]1CN2C [compound 218, 4-(6-(3,3-dimethylbutyl)aminopyridin-3-yl)-N-(3-methyl-4-((1S,4S)-5-methyl-2,5-diazabicyclo[2.2.1]heptan-2-yl)phenyl)pyrimidin-2-amine] | 
 | < 1000 nM | CN1C[C@@H]2C[C@H]1CN2c1ccc(Nc2nccc(-c3ccc(N4CCOCC4)nc3)n2)cc1C(F)(F)F [compound 97, 4-(6-(morpholin-4-yl)pyridin-3-yl)-N-(3-trifluoromethyl-4-((1S,4S)-5-methyl-2,5-diazabicyclo[2.2.1]heptan-2-yl)phenyl)pyrimidin-2-amine] | 
1000 to 10000 nM |  | CS(=O)(=O)N1CC2CC(c3ccc(Nc4nccc(-c5ccc(N6CCOCC6)nc5)n4)cc3)C1C2 (centres unmarked) [compound 229, 4-(6-(morpholin-4-yl)pyridin-3-yl)-N-(4-(2-methylsulfonyl-2-azabicyclo[2.2.1]heptan-6-yl)phenyl)pyrimidin-2-amine] | 
